Assay results reported in US7906499B2, “Polycarboxylated porphyrins and use thereof in treatment of metal toxicities” (priority 2005, dated 2011).
Where “and” joins values, the source holds several entries; their conditions need not be identical. Equal entries are not always repeated.

Key:
[1] = Absorption spectroscopy of porphyrin intermediates on addition of metal (metal binding), +Mn; design: key to Cpor 370 nm peak, change after metal addition / Cpor 500 nm peak, change after metal addition / Cpor 538 nm peak, change after metal addition / Cpor 560 nm peak, change after metal addition / Cpor 608 nm peak, change after metal addition / Upor 395 nm peak, change after metal addition / Upor 498 nm peak, change after metal addition / Upor 540 nm peak, change after metal addition / Upor 565 nm peak, change after metal addition / Upor 612 nm peak, change after metal addition: Dis; peak disappeared.; Inc; Peak increased.; Dec; peak decreased.; = indicates no difference from the control.; (a)indicates new peak
Text: (§1) In the determining step, the individual is identified as subject to or predisposed to a polycarboxylated porphyrin-binding metal toxicity. Polycarboxylated porphyrin-binding metal toxicities include metal toxicity from environmental exposure, and disorders characterized by disturbances in metal ion homeostasis, particularly disorders that result in metal ion accumulation. Examples of such disorders include Wilson's disease, in which copper transport is defective (e.g. Nakayama, 2000); aceruloplasminemia, an iron metabolism disorder (e.g. Miyajima, 2003); and diseases involving metal-facilitated protein aggregation such as zinc, copper, or iron facilitated-aggregation of Aβ in Alzheimer's disease (e.g. Atamna, 2004), and aluminum, copper, iron, cobalt, or manganese facilitated-aggregation of α-synuclein in Parkinson's disease (e.g. Uversky, 2001). Conventional spectroscopy assays (e.g. Beer, 2003) can be used to determine whether a given polycarboxylated porphyrin binds the toxic metal of interest (e.g. Example 2, below). In particular embodiments, the metal is selected from the group consisting of Al^+++, Hg^++, […], Cu^+, Mn^+, and Zn^++.
(§2) We studied the interaction between metals and porphyrin intermediates.

[2] = Absorption spectroscopy of porphyrin intermediates on addition of metal (metal binding), +Cu; design: key to Cpor 370 nm peak, change after metal addition / Cpor 500 nm peak, change after metal addition / Cpor 538 nm peak, change after metal addition / Cpor 560 nm peak, change after metal addition / Cpor 608 nm peak, change after metal addition / Upor 395 nm peak, change after metal addition / Upor 498 nm peak, change after metal addition / Upor 540 nm peak, change after metal addition / Upor 565 nm peak, change after metal addition / Upor 612 nm peak, change after metal addition: Dis; peak disappeared.; Inc; Peak increased.; Dec; peak decreased.; = indicates no difference from the control.; (a)indicates new peak
Text: as §1, §2

[3] = Absorption spectroscopy of porphyrin intermediates on addition of metal (metal binding), +Zn; design: key to Cpor 500 nm peak, change after metal addition / Cpor 538 nm peak, change after metal addition / Cpor 560 nm peak, change after metal addition / Cpor 608 nm peak, change after metal addition / Upor 498 nm peak, change after metal addition / Upor 540 nm peak, change after metal addition / Upor 565 nm peak, change after metal addition / Upor 612 nm peak, change after metal addition: Dis; peak disappeared.; Inc; Peak increased.; Dec; peak decreased.; = indicates no difference from the control.; (a)indicates new peak
Text: as §1, §2

Aβ1-40 = Aβ1-40 (Homo sapiens, UniProt P05067); assay: Dissolution / prevention of metal-induced Aβ aggregates (filtration, 6E10 immunodetection); assay type: biochemical; settings: "we found", with reference to Atamna, 2004
Method: Aβ1-40 (10 ng in 200 μl) aggregation is induced by incubation (30 min, RT) with ZnCl2 (25 μM in TBS, pH 7.4), CuCl2 (5 μM in TBS, pH 6.8), or acidic conditions (pH 5.5, MES buffered saline). Aggregates are transferred to a 0.2μ nylon membrane by filtration using a 96-well ELIFA apparatus (Pierce). The aggregates are then washed (200 μl/well) with TBS alone, TBS containing 2 μM EDTA (control), or TBS with uroproporphyrin or coproporphyrin at varying concentrations (0.1 μM-1 mM). The membrane is fixed, probed with the anti-Aβ monoclonal antibody 6E10 (Senetek), and developed for exposure to ECL film. Quantification of retained, aggregated Aβ is performed by densitometry, calibrated against known amounts of the peptide.
Because metals, such as Zn++ and Cu+, trigger the pathologic aggregation of Aβ, an important causal factor in Alzheimers disease, we tested the ability of endogenous prophyrins to prevent Aβ aggregation using published methodology. […] The effect of porphyrins on Aβ is likely mediated by their ability to chelate metals. […] Endogenous porphyrins can be used directly, or their synthesis can be triggered in tissue by applying their precursors and/or cofactors, for therapeutic purposes including the treatment and prevention of disorders that involve Aβ aggregation and/or metal toxicity. […]

Aβ1-40, sequence (P05067 672-711 limits assumed): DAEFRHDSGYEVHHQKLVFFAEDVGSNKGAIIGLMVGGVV

With `O=C(O)CCC1=C(CC(=O)O)c2cc3[nH]c(cc4nc(cc5[nH]c(cc1n2)c(CC(=O)O)c5CCC(=O)O)C(CCC(=O)O)=C4CC(=O)O)c(CC(=O)O)c3CCC(=O)O` [Upor, Uroporphyrin III] the “New peak after metal addition (marked a)” value [1] was 460a nm and 545a nm and 575a nm, the “Upor 395 nm peak, change after metal addition” value [1] was “Inc” and the “Upor 498 nm peak, change after metal addition” value (shortened to “Upor 498 nm peak, change”) [1] was “Dis”. The “Upor 540 nm peak, change after metal addition” value (“Upor 540 nm peak, change” below) [1] was “Dis”, the “Upor 565 nm peak, change after metal addition” value (from here on “Upor 565 nm peak, change”) [1] was “Dis” and the “Upor 612 nm peak, change after metal addition” value (shortened to “Upor 612 nm peak, change”) [1] was “Dis”. The “New peak after metal addition (marked a)” value [2] was 525a nm, the “Upor 395 nm peak, change after metal addition” value [2] was “Inc” and the “Upor 498 nm peak, change” value [2] was “Dis”. For the same compound, the “Upor 540 nm peak, change” value [2] was “Dis”, the “Upor 565 nm peak, change” value [2] was “Inc” and the “Upor 612 nm peak, change” value [2] was “Dis”. For the same compound, the “New peak after metal addition (marked a)” value [3] was 575a nm, the “Upor 498 nm peak, change” value [3] was “Dis” and the “Upor 540 nm peak, change” value [3] was “Inc”. The “Upor 565 nm peak, change” value [3] was “Dis”, the “Upor 612 nm peak, change” value [3] was “Dis” and the “Upor 395 nm peak after metal addition (peak position)” value ([3]; control peak 395 nm) was 405 nm.

With `C=CC1=C(C)c2cc3[n-]c(cc4[n-]c(cc5nc(cc1n2)C(C)=C5C=C)c(C)c4CCC(=O)O)c(CCC(=O)O)c3C.[Fe+2]` [heme] the “Displacement of metals from aggregated Aβ and disaggregation” value (Aβ1-40) was “displace metals from the aggregated Aβ and disaggregate the complex”.

In the case of Coproporphyrin III [Cpor], the “Cpor 370 nm peak, change after metal addition” value [1] is reported as “=”, the “Cpor 500 nm peak, change after metal addition” value (“Cpor 500 nm peak, change” below) [1] is reported as “=” and the “Cpor 538 nm peak, change after metal addition” value (from here on “Cpor 538 nm peak, change”) [1] is reported as “=”. The “Cpor 560 nm peak, change after metal addition” value (shortened to “Cpor 560 nm peak, change”) [1] was “=”, the “Cpor 608 nm peak, change after metal addition” value (“Cpor 608 nm peak, change” below) [1] was “=” and the “Cpor 370 nm peak, change after metal addition” value [2] was “=”. For the same compound, the “Cpor 500 nm peak, change” value [2] was “=”, the “Cpor 538 nm peak, change” value [2] was “Dec” and the “Cpor 560 nm peak, change” value [2] was “Dec”. For the same compound, the “Cpor 608 nm peak, change” value [2] was “Dis”, the “New peak after metal addition (marked a)” value [2] was 525a nm and the “Cpor 500 nm peak, change” value [3] was “Dis”. The “Cpor 538 nm peak, change” value [3] was “Inc”, the “Cpor 560 nm peak, change” value [3] was “Inc” and the “Cpor 608 nm peak, change” value [3] was “Dis”. For the same compound, the “New peak after metal addition (marked a)” value [3] was 575a nm and the “Cpor 370 nm peak after metal addition (peak position)” value ([3]; control peak 370 nm) was 400 nm.
